Measurements taken from publication PMC11982470, “The 2-methylcitrate cycle and the glyoxylate shunt in Pseudomonas aeruginosa are linked through enzymatic redundancy” (The Journal of Biological Chemistry, 2025).

Experiments:
[1] = target: T1, PrpBPa (Pseudomonas aeruginosa, UniProt Q9I5E2); experiment: LDH-coupled assay, inhibitor screen, relative activity; assay type: biochemical; conditions: 1 mM compound, 5 min preincubation; pH 7.5, Mg2+, DTT, 37 °C
T1 construct: gene prpB; full-length, N-terminal His6 tag TEV-cleaved (pET-19m), expressed in E. coli; homotetramer (dimer of dimers)
T1 sequence (Q9I5E2 1-298): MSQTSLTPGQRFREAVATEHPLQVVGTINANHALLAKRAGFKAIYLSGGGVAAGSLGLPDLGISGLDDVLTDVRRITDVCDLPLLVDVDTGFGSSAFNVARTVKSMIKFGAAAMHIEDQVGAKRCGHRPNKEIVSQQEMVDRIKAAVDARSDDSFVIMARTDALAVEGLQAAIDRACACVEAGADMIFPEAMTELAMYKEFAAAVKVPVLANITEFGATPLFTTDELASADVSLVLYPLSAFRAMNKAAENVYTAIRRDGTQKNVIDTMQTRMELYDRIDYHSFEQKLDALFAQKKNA

[2] = target: T2, AceAPa (ICLPa) (Pseudomonas aeruginosa, UniProt Q9I0K4); experiment: LDH-coupled assay, NADH oxidation at […] nm; assay type: biochemical; conditions: 50 mM Hepes pH 7.5, 2.5 mM MgCl2, 5 mM DTT, 37 °C; racemic threo substrate
T2 construct: gene PA2634; full-length, N-terminal His6 tag TEV-cleaved (pET-19m), expressed in E. coli
T2 sequence (Q9I0K4 1-531): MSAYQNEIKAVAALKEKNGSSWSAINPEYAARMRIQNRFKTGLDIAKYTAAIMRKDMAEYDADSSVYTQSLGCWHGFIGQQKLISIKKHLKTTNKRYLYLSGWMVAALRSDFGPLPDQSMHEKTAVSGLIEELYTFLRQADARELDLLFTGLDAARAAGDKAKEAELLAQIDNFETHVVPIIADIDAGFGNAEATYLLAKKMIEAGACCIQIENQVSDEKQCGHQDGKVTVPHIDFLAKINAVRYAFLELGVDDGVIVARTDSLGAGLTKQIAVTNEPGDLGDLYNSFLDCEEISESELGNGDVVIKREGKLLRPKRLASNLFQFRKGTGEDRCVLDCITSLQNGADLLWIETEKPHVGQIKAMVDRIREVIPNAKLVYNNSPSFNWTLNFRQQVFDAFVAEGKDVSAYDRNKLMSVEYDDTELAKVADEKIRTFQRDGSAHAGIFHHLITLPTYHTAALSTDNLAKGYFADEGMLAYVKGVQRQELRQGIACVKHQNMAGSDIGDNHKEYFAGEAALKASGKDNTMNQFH

[3] = target: T2, AceAPa (ICLPa); experiment: phenylhydrazine-based isocitrate lyase assay, […] nm; assay type: biochemical; conditions: 4 mM DL-isocitric acid, 25 mM imidazole pH 7.0, 10 mM EDTA, 5 mM MgCl2
[4] = target: the molecule itself; experiment: crystal structure; apo-PrpBPa (1.8 Å) and PrpBPa with Mg2+/pyruvate (1.76 Å, crystal soak); tetramer in the asymmetric unit; crystals from Tris-HCl pH 8.5, PEG 4000, LiSO4, 5 mM DTT, 19 °C
[5] = substrate: CC(O)(C(=O)O)C(CC(=O)O)C(=O)O; experiment: purified protein; assay type: biochemical, Pseudomonas aeruginosa; conditions: 50 mM Hepes pH 7.5, 2.5 mM MgCl2, 5 mM DTT, 37 °C, DTT-pretreated enzyme, racemic threo substrate

O=C(O)CC[N+](=O)[O-] [3-nitropropionic acid]
relative activity at 1 mM [1]: 3-nitropropionic acid was also a potent inhibitor of PrpBPa

CC(O)(C(=O)O)C(CC(=O)O)C(=O)O (racemic) [threo-2-methylisocitrate]
LDH-coupled assay, NADH oxidation at 340 nm [2]: purified AceAPa demonstrated robust 2-MICL activity in vitro

O=C(O)CCC(=O)C(=O)O [α-ketoglutarate]
relative activity at 1 mM [1]: α-ketoglutarate, cis-aconitic acid, and D-glyceraldehyde 3-phosphate were all potent inhibitors of PrpBPa

O=C(O)/C=C(/CC(=O)O)C(=O)O [cis-aconitic acid]
relative activity at 1 mM [1]: α-ketoglutarate, cis-aconitic acid, and D-glyceraldehyde 3-phosphate were all potent inhibitors of PrpBPa

O=C(O)CC(C(=O)O)C(O)C(=O)O (racemic) [DL isocitric acid]
phenylhydrazine-based isocitrate lyase assay, 324 nm [3]: could catalyze the cleavage of isocitrate into glyoxylate and succinate

O=C[C@H](O)COP(=O)(O)O [D-glyceraldehyde 3-phosphate]
relative activity at 1 mM [1]: α-ketoglutarate, cis-aconitic acid, and D-glyceraldehyde 3-phosphate were all potent inhibitors of PrpBPa

O=C(O)/C=C\C(=O)O [Maleic acid]
relative activity at 1 mM [1]: Maleic acid was a nonphysiological inhibitor

B1: 2-methylisocitrate lyase PrpB from Pseudomonas aeruginosa (PrpBPa) (enzyme, Pseudomonas aeruginosa PAO1)
chain: MSQTSLTPGQRFREAVATEHPLQVVGTINANHALLAKRAGFKAIYLSGGGVAAGSLGLPDLGISGLDDVLTDVRRITDVCDLPLLVDVDTGFGSSAFNVARTVKSMIKFGAAAMHIEDQVGAKRCGHRPNKEIVSQQEMVDRIKAAVDARSDDSFVIMARTDALAVEGLQAAIDRACACVEAGADMIFPEAMTELAMYKEFAAAVKVPVLANITEFGATPLFTTDELASADVSLVLYPLSAFRAMNKAAENVYTAIRRDGTQKNVIDTMQTRMELYDRIDYHSFEQKLDALFAQKKNA
notes: 2-methylisocitrate lyase PrpB, Pseudomonas aeruginosa PAO1, locus PA0796, PCR-amplified from PAO1 genomic DNA and cloned into pET-19m; 32.1 kDa; In the crystal structures the termini and the active site loop (residues 121-131) are not resolved; also called 2-MICL; PA0796; source: E. coli, purified (Ni-NTA; His6 tag removed with TEV protease); not shown: His6, N-terminal, cleaved
stoichiometry N [4]: 4 | Km [5]: 632 ± 158 µM | kcat [5]: 48.2 ± 4.2 s⁻¹
